The source made the active and inactive calls. No cut-off for these calls is given here.
Key:
[1] = molecular target: Prostaglandin G/H synthase 2 (Homo sapiens) (UniProt P35354); assay: Inhibition of COX2 (unknown origin) up to 25 uM
[2] = molecular target: Protein kinase C alpha type (Homo sapiens) (UniProt P17252); assay: Inhibition of PKCalpha (unknown origin) at 30 uM
[3] = molecular target: Rho-associated protein kinase 1 (Homo sapiens) (UniProt Q13464); assay: Inhibition of ROCK1 (unknown origin) at 30 uM
[4] = molecular target: Rho-associated protein kinase 2 (Homo sapiens) (UniProt O75116); assay: Inhibition of ROCK2 (unknown origin) at 30 uM
Homo sapiens = species on record: Homo sapiens; assay: Inhibition of PKA (unknown origin) at 30 uM
[5] = molecular target: Protein kinase C beta type (Homo sapiens) (UniProt P05771); assay: Inhibition of PKCbeta (unknown origin) at 30 uM
[6] = molecular target: Tyrosine-protein kinase JAK2 (Homo sapiens) (UniProt O60674); assay: Inhibition of JAK2 (unknown origin) at 30 uM
[7] = molecular target: Tyrosine-protein kinase JAK3 (Homo sapiens) (UniProt P52333); assay: Inhibition of JAK3 (unknown origin) at 30 uM
[8] = molecular target: Tyrosine-protein kinase JAK1 (Homo sapiens) (UniProt P23458); assay: Inhibition of JAK1 (unknown origin) at 30 uM
[9] = molecular target: Phosphatidylinositol 4,5-bisphosphate 3-kinase catalytic subunit delta isoform (Homo sapiens) (UniProt O00329); assay: Inhibition of PI3Kdelta (unknown origin) at 30 uM
[10] = molecular target: Mitogen-activated protein kinase 8 (Homo sapiens) (UniProt P45983); assay: Inhibition of JNK1 (unknown origin) at 30 uM
[11] = molecular target: Phosphatidylinositol 4,5-bisphosphate 3-kinase catalytic subunit gamma isoform (Homo sapiens) (UniProt P48736); assay: Inhibition of PI3Kgamma (unknown origin) at 30 uM
[12] = molecular target: Phosphatidylinositol 4,5-bisphosphate 3-kinase catalytic subunit beta isoform (Homo sapiens) (UniProt P42338); assay: Inhibition of PI3Kbeta (unknown origin) at 30 uM
[13] = molecular target: Phosphatidylinositol 4,5-bisphosphate 3-kinase catalytic subunit alpha isoform (Homo sapiens) (UniProt P42336); assay: Inhibition of PI3Kalpha (unknown origin) at 30 uM
[14] = molecular target: RAC-beta serine/threonine-protein kinase (Homo sapiens) (UniProt P31751); assay: Inhibition of AKT2 (unknown origin) at 30 uM
[15] = molecular target: RAC-gamma serine/threonine-protein kinase (Homo sapiens) (UniProt Q9Y243); assay: Inhibition of AKT3 (unknown origin) at 30 uM
[16] = molecular target: Inhibitor of nuclear factor kappa-B kinase subunit epsilon (Homo sapiens) (UniProt Q14164); assay: Inhibition of IKKepsilon (unknown origin) at 30 uM
[17] = molecular target: RAC-alpha serine/threonine-protein kinase (Homo sapiens) (UniProt P31749); assay: Inhibition of AKT1 (unknown origin) at 30 uM
[18] = molecular target: Inhibitor of nuclear factor kappa-B kinase subunit alpha (Homo sapiens) (UniProt O15111); assay: Inhibition of IKKalpha (unknown origin) at 30 uM
[19] = molecular target: Inhibitor of nuclear factor kappa-B kinase subunit beta (Homo sapiens) (UniProt O14920); assay: Inhibition of IKKbeta (unknown origin) at 30 uM
[20] = molecular target: Mitogen-activated protein kinase 3 (Homo sapiens) (UniProt P27361); assay: Inhibition of ERK1 (unknown origin) at 30 uM
[21] = molecular target: MAP kinase-activated protein kinase 5 (Homo sapiens) (UniProt Q8IW41); assay: Inhibition of MAPKAPK5 (unknown origin) at 30 uM
[22] = molecular target: MAP kinase-activated protein kinase 3 (Homo sapiens) (UniProt Q16644); assay: Inhibition of MAPKAPK3 (unknown origin) at 30 uM
[23] = molecular target: Mitogen-activated protein kinase 13 (Homo sapiens) (UniProt O15264); assay: Inhibition of p38delta (unknown origin) at 30 uM
[24] = molecular target: Mitogen-activated protein kinase 11 (Homo sapiens) (UniProt Q15759); assay: Inhibition of p38beta (unknown origin) at 30 uM
[25] = molecular target: Dual specificity mitogen-activated protein kinase kinase 2 (Homo sapiens) (UniProt P36507); assay: Inhibition of MEK2 (unknown origin) at 30 uM
[26] = molecular target: Dual specificity mitogen-activated protein kinase kinase 4 (Homo sapiens) (UniProt P45985); assay: Inhibition of MKK4 (unknown origin) at 30 uM
[27] = molecular target: Mitogen-activated protein kinase kinase kinase 8 (Homo sapiens) (UniProt P41279); assay: Inhibition of MAP3K8 (unknown origin) at 30 uM
[28] = molecular target: Dual specificity mitogen-activated protein kinase kinase 1 (Homo sapiens) (UniProt Q02750); assay: Inhibition of MEK1 (unknown origin) at 30 uM
[29] = molecular target: Mitogen-activated protein kinase kinase kinase 7 (Homo sapiens) (UniProt O43318); assay: Inhibition of TAK1 (unknown origin) at 30 uM
[30] = molecular target: Interleukin-1 receptor-associated kinase 1 (Homo sapiens) (UniProt P51617); assay: Inhibition of IRAK1 (unknown origin) at 30 uM
PBMC [31] = assay: Cytotoxicity against LPS-stimulated human PBMC assessed as growth inhibition by MTT assay; assay type: cell-based
Mus musculus [32] = assay: Antiinflammatory activity in collagen-induced arthritis mouse model at 30 mg/kg, po qd administered every other day for 20 days relative to vehicle-treated control; assay type: functional; settings: 480 h
Mus musculus [33] = assay: Antiinflammatory activity in mouse assessed as inhibition of LPS-induced IL-6 production at 100 mg/kg, po administered 1 hr prior to LPS challenge measured after 1 hr; assay type: functional, organism-based; parameters: dose 100 mg/kg
Mus musculus [34] = assay: Antiinflammatory activity in mouse assessed as inhibition of LPS-induced IL-6 production at 10 mg/kg, po administered 1 hr prior to LPS challenge measured after 1 hr; assay type: functional
Mus musculus [35] = assay: Antiinflammatory activity in mouse assessed as inhibition of LPS-induced TNF-alpha production at 10 mg/kg, po administered 1 hr prior to LPS challenge measured after 1 hr; assay type: functional
Mus musculus [36] = assay: Antiinflammatory activity in po dosed mouse assessed as inhibition of LPS-induced TNF-alpha production administered 1 hr prior to LPS challenge measured after 1 hr; assay type: functional, organism-based
[37] = Oral bioavailability in mouse at 4 mg/kg; assay type: ADME, organism-based; settings: in vivo
[38] = AUC (0 to 24 hrs) in mouse at 4 mg/kg, po; assay type: ADME, organism-based; parameters: time < 24 hr, dose 4 mg/kg, route oral; settings: plasma
[39] = Cmax in mouse at 4 mg/kg, po; assay type: ADME, organism-based; parameters: dose 4 mg/kg, route oral; settings: in vivo
PBMC [40] = assay: Antiinflammatory activity in human PBMC assessed as inhibition of LPS-induced IL-6 release incubated for 15 mins prior to LPS-challenge measured after 24 hrs by HTRF assay; assay type: functional, cell-based
Mus musculus [41] = assay: Antiinflammatory activity in mouse assessed as inhibition of LPS-induced TNF-alpha production at 30 mg/kg, po administered 1 hr prior to LPS challenge measured after 1 hr; assay type: functional
Mus musculus [42] = assay: Antiinflammatory activity in mouse assessed as inhibition of LPS-induced TNF-alpha production at 100 mg/kg, po administered 1 hr prior to LPS challenge measured after 1 hr; assay type: functional, organism-based; parameters: dose 100 mg/kg

Dual specificity mitogen-activated protein kinase kinase 4 (Homo sapiens), sequence (P45985 whole entry): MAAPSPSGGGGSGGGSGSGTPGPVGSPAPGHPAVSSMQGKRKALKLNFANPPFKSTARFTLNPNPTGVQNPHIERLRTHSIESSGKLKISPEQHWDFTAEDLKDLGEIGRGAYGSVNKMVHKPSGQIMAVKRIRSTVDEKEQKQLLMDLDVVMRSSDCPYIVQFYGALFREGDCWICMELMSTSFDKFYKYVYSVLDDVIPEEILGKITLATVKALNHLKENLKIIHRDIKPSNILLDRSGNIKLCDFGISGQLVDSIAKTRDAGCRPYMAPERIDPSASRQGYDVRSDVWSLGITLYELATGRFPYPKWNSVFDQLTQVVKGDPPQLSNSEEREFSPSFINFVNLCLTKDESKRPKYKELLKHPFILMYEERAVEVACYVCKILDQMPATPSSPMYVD
Dual specificity mitogen-activated protein kinase kinase 2 (Homo sapiens), sequence (P36507 whole entry): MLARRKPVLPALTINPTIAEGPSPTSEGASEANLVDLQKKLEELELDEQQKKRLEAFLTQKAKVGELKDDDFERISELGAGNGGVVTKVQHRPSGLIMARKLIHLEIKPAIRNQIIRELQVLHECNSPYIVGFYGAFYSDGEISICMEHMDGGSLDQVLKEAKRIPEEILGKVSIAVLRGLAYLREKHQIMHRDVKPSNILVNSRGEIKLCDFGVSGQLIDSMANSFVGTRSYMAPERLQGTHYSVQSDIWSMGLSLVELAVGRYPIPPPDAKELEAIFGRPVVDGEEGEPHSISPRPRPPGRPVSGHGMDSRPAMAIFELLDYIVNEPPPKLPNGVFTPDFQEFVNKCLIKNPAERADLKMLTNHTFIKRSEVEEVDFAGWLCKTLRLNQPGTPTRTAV
Mitogen-activated protein kinase 11 (Homo sapiens), sequence (Q15759 whole entry): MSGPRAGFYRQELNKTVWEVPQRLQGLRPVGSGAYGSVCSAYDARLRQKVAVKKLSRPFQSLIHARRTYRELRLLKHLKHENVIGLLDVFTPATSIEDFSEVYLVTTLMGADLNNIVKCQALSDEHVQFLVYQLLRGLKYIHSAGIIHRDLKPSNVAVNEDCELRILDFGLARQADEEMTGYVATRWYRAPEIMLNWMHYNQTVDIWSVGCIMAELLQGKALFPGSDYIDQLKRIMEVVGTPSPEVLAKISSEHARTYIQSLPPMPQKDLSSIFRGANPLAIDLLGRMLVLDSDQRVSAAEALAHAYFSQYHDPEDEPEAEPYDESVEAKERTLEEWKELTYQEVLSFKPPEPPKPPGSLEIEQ
Inhibitor of nuclear factor kappa-B kinase subunit epsilon (Homo sapiens), sequence (Q14164 whole entry): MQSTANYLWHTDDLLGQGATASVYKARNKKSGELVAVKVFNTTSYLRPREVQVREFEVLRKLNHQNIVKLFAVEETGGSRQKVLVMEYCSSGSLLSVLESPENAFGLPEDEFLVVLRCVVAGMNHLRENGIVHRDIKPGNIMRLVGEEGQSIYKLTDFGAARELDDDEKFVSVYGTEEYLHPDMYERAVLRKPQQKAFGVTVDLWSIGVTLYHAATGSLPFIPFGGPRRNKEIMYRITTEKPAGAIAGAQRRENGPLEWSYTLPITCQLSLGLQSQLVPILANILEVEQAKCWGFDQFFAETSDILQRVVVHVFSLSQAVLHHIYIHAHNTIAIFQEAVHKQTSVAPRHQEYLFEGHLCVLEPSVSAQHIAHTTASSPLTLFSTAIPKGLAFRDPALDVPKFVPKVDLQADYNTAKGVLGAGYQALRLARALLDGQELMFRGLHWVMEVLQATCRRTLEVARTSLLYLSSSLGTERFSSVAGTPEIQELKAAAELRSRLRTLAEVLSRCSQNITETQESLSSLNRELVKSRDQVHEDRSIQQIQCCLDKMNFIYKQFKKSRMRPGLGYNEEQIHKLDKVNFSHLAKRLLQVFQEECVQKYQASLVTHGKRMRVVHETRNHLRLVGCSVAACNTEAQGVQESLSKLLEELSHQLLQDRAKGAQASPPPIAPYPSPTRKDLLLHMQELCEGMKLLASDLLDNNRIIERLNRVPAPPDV
Mitogen-activated protein kinase kinase kinase 7 (Homo sapiens), sequence (O43318 whole entry): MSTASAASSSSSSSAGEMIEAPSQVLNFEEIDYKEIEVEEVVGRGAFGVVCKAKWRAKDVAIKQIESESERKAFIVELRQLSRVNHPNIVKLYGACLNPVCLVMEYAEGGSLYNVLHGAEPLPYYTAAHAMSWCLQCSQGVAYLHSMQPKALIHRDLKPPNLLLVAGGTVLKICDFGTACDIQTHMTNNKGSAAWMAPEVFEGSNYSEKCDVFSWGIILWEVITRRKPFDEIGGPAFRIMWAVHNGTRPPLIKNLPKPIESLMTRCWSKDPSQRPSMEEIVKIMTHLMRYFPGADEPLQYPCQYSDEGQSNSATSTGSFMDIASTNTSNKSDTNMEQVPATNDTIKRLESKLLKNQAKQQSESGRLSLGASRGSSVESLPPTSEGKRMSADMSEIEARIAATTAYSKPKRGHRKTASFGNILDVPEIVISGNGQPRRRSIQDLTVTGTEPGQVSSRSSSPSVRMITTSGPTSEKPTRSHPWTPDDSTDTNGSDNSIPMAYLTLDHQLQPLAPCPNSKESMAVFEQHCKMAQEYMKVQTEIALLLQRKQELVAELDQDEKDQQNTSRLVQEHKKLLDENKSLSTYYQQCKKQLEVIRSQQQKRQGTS
Phosphatidylinositol 4,5-bisphosphate 3-kinase catalytic subunit beta isoform (Homo sapiens), sequence (P42338 whole entry, looked up, canonical isoform): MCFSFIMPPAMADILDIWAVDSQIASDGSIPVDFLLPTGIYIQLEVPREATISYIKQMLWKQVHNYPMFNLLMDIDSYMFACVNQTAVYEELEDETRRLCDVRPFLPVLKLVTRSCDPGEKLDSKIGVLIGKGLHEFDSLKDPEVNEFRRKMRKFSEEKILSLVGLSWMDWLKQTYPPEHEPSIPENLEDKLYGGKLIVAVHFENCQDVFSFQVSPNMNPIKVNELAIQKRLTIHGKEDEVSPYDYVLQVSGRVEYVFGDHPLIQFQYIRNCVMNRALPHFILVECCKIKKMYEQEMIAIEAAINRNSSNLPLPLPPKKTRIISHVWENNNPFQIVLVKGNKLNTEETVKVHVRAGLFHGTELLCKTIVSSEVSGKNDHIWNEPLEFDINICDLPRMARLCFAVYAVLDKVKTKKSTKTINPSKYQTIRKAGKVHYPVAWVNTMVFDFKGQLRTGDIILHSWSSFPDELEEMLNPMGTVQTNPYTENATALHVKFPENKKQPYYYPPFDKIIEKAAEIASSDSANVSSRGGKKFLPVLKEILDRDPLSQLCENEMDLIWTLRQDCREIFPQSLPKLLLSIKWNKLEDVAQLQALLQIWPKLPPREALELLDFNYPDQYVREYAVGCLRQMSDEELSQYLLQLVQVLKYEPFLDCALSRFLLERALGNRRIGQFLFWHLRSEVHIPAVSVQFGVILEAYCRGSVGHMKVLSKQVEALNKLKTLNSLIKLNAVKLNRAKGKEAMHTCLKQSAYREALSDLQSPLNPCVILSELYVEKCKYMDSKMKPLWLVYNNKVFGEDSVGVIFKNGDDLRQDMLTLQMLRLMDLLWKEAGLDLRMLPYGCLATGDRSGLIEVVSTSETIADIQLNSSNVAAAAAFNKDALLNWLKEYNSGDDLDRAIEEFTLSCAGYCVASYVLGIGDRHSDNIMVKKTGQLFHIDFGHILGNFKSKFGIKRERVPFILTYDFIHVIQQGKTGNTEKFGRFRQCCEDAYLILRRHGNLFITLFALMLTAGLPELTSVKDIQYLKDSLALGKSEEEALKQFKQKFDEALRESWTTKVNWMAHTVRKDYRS
Prostaglandin G/H synthase 2 (Homo sapiens), sequence (P35354 whole entry): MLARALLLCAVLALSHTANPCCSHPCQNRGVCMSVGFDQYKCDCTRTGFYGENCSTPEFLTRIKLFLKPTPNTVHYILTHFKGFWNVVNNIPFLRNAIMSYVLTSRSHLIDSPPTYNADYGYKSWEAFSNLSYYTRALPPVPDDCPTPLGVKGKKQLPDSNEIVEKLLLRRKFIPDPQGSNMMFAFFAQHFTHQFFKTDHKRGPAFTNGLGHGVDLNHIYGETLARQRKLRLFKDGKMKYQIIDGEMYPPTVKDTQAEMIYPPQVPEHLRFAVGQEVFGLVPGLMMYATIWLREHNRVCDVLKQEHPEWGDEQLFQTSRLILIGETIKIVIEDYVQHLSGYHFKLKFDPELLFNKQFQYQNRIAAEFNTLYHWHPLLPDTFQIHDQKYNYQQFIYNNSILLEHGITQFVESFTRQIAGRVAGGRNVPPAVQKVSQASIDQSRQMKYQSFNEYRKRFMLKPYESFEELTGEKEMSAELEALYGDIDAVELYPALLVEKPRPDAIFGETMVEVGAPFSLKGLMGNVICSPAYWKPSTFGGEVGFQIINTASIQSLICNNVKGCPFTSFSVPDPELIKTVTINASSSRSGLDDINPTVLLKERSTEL
Interleukin-1 receptor-associated kinase 1 (Homo sapiens), sequence (P51617 whole entry, looked up): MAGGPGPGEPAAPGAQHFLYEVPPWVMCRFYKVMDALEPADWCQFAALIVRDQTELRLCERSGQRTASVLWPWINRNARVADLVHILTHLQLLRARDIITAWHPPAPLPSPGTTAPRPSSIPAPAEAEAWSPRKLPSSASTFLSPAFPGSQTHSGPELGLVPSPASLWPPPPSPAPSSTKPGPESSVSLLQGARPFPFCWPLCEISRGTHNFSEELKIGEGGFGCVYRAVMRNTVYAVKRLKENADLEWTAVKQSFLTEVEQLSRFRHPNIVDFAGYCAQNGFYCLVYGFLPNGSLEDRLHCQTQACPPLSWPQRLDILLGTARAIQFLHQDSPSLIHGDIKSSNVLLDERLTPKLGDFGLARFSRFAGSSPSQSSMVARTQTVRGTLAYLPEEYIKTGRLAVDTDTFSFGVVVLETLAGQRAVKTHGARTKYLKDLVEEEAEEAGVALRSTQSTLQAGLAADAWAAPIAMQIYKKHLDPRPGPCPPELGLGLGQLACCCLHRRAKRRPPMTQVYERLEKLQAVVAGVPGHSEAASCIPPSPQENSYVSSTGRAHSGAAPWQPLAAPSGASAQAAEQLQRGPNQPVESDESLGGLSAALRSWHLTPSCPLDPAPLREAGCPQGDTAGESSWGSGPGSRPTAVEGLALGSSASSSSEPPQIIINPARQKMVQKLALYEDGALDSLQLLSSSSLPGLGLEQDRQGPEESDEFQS

O=C(Nc1ccc2c(c1)B(O)OC2)c1c(C(F)(F)F)ccc(Cl)c1F
inhibition [1]: inactive | inhibition [2]: 62% | inhibition [3]: inactive | inhibition [4]: inactive | inhibition (Homo sapiens): inactive | inhibition [5]: inactive | inhibition [6]: inactive | inhibition [7]: inactive | inhibition [8]: inactive | inhibition [9]: inactive | inhibition [10]: inactive | inhibition [11]: inactive | inhibition [12]: inactive | inhibition [13]: inactive | inhibition [14]: inactive | inhibition [15]: inactive | inhibition [16]: inactive | inhibition [17]: inactive | inhibition [18]: inactive | inhibition [19]: inactive | inhibition [20]: inactive | inhibition [21]: inactive | inhibition [22]: inactive | inhibition [23]: inactive | inhibition [24]: inactive | inhibition [25]: inactive | inhibition [26]: inactive | inhibition [27]: inactive | inhibition [28]: inactive | inhibition [29]: inactive | inhibition [30]: inactive | IC50 (PBMC [31]): > 100000 nM | inhibition in vivo at 30 mg/kg (Mus musculus [32]): 68% | inhibition (Mus musculus [33]): Active | inhibition in vivo at 10 mg/kg (Mus musculus [34]): 75% | inhibition in vivo at 10 mg/kg (Mus musculus [35]): 60% | inhibition (Mus musculus [36]): Dose-dependent effect | bioavailability [37]: 71% | AUC(0-t) at 24 h [38]: 70100 ng·h/mL | Cmax [39]: 5650 ng/mL | IC50 (PBMC [40]): 320 nM | inhibition in vivo at 30 mg/kg (Mus musculus [41]): 80% | inhibition (Mus musculus [42]): Active
